Assay results published in patent US20140249198A1, “MELATONIN AND ITS USE IN PREVENTING POSTOPERATIVE COMPLICATIONS” (NUTRI-FIT GMBH & CO., KG, priority 2004, published 2014).

Columns and labels:
[1] = test system: female Sprague Dawley rats; experiment: Partial liver resection with ischemia/reperfusion in rats, preoperative melatonin by gavage; assay type: in vivo, rat
Experimental: Ischemia and subsequent reperfusion of organs and tissues induced by clamping of blood vessels to prevent excessive bleeding, are unavoidable during surgical procedures. Such a standard ischemia/reperfusion situation can be simulated by a partial hepatectomy in a clinically relevant rat surgical model.
In this animal model, female Sprague Dawley rats (200-220 g) undergo a median laparotomy followed by clamping of the right lateral liver lobe for 20 min resulting in a hypoxia in about 30% of the entire organ. After reperfusion of the ischemic tissue, the remaining 70% of the liver, the non-ischemic middle and left lateral liver lobes are surgically removed and the surgical incision is closed. During a follow up period of maximal 7 days the effects of ischemia/reperfusion are observed with respect to liver damage and survival.
In this rat model the operative trauma of performing a laparotomy introduces a first hypoxia in the liver. The subsequent partial clamping of the blood supply to the liver and the following partial resection of a large part of liver tissue results in additional ischemia. During the subsequent reperfusion the actual free radical-induced damage to the liver tissue occurs. This actual damage to many cells of the liver tissue in regions of the remaining parts of the organ is now determined by the release of enzymes such as liver transaminases, alkaline phosphatase after various time points following partial liver resection.
After reperfusion of the ischemic tissue, the remaining 70% of the liver, the non-ischemic middle and the left lateral liver lobes were surgically removed and the surgical incision was closed.
In this rat model the operative trauma of performing a laparotomy introduced a first hypoxia in the liver. […] During the subsequent reperfusion the actual free radical-induced damage to the liver tissue occurred. This actual damage to many cells of the liver tissue in regions of the remaining parts of the organ was now determined by the release of enzymes such as liver transaminases (AST, ALT) and alkaline phosphatase after various time points following partial liver resection.
Melatonin was administered in various concentrations (0, 10, 20, 50 mg/kg body weight) by gavage of a control (5% ethanol in water; 0 mg/kg body weight melatonin) or a melatonin-containing aqueous solution (5% ethanol) into the stomach of the 10 rats of each of the four groups 2 hours before the surgery.

[2] = test system: mice; settings: short term administration after surgery-induced hemorrhagic shock, mice subjected to septic challenge; cited from earlier work
[3] = test system: rat middle cerebral artery occlusion model; settings: pretreatment with melatonin; cited from earlier work
[4] = test system: neutrophils; settings: in vitro; apoptosis delayed following hepatectomy; cited from earlier work
[5] = test system: neonates; settings: treatment started within 3 hours after the end of surgery; cited from earlier work
[6] = 10, 20, 50 mg/kg body weight by gavage 2 hours before surgery, 3 and 8 h after partial liver resection, vs control, FIG. 1

For `COc1ccc2[nH]cc(CCNC(C)=O)c2c1` [Melatonin, N-acetyl-5-methoxytryptamin], the “survival after 7 days” value ([1]; 10 mg/kg body weight preoperatively, vs control, FIG. 3) was “significant increase in survival”, the “alkaline phosphatase (ALP) activity (indicates regeneration of the liver)” value ([1]; 50 mg/kg body weight preoperatively, 3, 8, 48 h and 1 week after partial liver resection, vs control, FIG. 2) was “increased ALP activity after 48 h reaching statistical significance after 1 week” and the “level of alanine transferase (ALT)” value [1, 6] was “amelioration of the massive increase”. For the same compound, the “level of aspartate transferase (AST)” value [1, 6] was “amelioration of the massive increase”, the “hypoxia of liver tissue” value ([1]; preoperative application, partial liver resection in rats) was “reduces the increase in hypoxia of liver tissue” and the “extent of necrosis following ischemia/reperfusion of the liver” value ([1]; preoperative application, rats) was “reduces the extent of necrosis”. The survival [2] was “significantly improved survival”, the “volume of cerebral infarction” value [3] was “reduce the volume of cerebral infarction” and the “apoptosis activity in neutrophils” value [4] was “enhances apoptosis activity in neutrophils”. For the same compound, the “clinical parameters of inflammation” value [5] was “progressive reduction of clinical parameters of inflammation”.
